PubChem BioAssay AID1963833 (Molecular Pharmacology Branch, DTP, NCI, 2024)
pIC50: −log10 of the molar value. Values joined by “and” are separate entries in the source; they are usually repeats but may differ in a detail not shown here. Equal entries are not always repeated.

System: 883617-216-R-J1-PDC complex spheroid viability
Assay: Anticancer human tumor 883617-216-R-J1-PDC patient-derived bladder carcinoma cell line growth inhibition [POLQ]
Details: for viability, T/C: stronger effect = lower value
Description: Multicellular complex tumor spheroid response to Polymerase (POL) inhibitors (novobiocin, ART-558, RP6685) in combination with a variety of drugs and investigational agents in selected tumor cell lines
The POL inhibitors (novobiocin, ART-558, and RP6685) were evaluated both individually and in combination with standard of care and investigational anticancer small molecules within a complex spheroid model of solid tumors. . Complex spheroids include a stromal component modeled by human endothelial cells (HUVEC) and fibroblasts modeled by human mesenchymal stem cells (MSCs). The concentration ranges selected for each drug and investigational agent were based upon clinically achievable concentrations if the clinical Cmax of the agent was known.
Compounds. The drugs and investigational agents: novobiocin (NSC847541), ART-558 (NSC835418), RP-6685 (NSC848927), peposertib (NSC802822), ceralasertib (NSC780249), elimusertib (NSC800525), camonsertib (NSC841442), AZD-1390 (NSC803789), olaparib (NSC753686), talazoparib (NSC767125), rucaparib (NSC756644), sotorasib (NSC818433), MRTX-1133 (NSC836407), SN-38 (NSC673596), topotecan (NSC609699), epotoside (NSC141540), doxorubicin (NSC123127), gemcitabine (NSC613327), 5-fluorouracil (NSC19893), paclitaxel (NSC125973), vemurafenib (NSC761431), MSA-2 (NSC828583), SN-011 (NSC837082), adavosertib (NSC754352), prexasertib (NSC758257), carboplatin (NSC241240) and oxaliplatin (NSC266046), were obtained from the National Cancer Institute (NCI) Developmental Therapeutics Program Chemical Repository (21). The FDA-approved anticancer drug set is available from the Developmental Therapeutics Program at https://dtp.cancer.gov/organization/dscb/obtaining/. […] The stock solutions were prepared in dimethyl sulfoxide (DMSO, Sigma-Aldrich, St. Louis, MO, cat. D2650), except for the platinum compounds which were prepared in saline (Quality Biological, Gaithersburg, MD, cat. 114-055-101), at 800-fold the tested concentration and stored at -70 degrees C prior to their use. All drugs and investigational agents were tested over a range starting from a high concentration at or near the clinical Cmax and decreasing in half-log increments. If the clinical Cmax for an agent had not been determined, the highest concentration tested was 10 microM, except for SN-38, which was tested at a high concentration of 1 microM.
Cell Culture. All cells were maintained in an incubator at 37 degrees C and 5% CO2 with 95% humidity. The PDC lines were cultured according to standard operating procedures established by the NCI PDMR (https://pdmr.cancer.gov). Table 3 of the manuscript, lists the cell lines along with the number of the three cell types plated to form the mct-spheroids and media for tumor cell growth. After thawing, all PDC lines, except 997537-175-T-J1-PDC and 415267-285-R-J2-PDC, were cultured in Matrigel-coated flasks prepared with a working solution of 1X Ham's F-12 nutrient mix, without supplementation (Thermo Fisher Scientific, cat. 11765054), 100 U/mL penicillin-streptomycin (Thermo Fisher Scientific, cat. 15140122), and 2.5% Matrigel (Corning Inc., Corning, NY, cat. 354248) for the first three passages. The two PDC lines 997537-175-T-J1-PDC and 415267-285-R-J2-PDC were cultured on uncoated flasks. The 857933-349-R-J2-PDC line was cultured in 6C/Colon 1B media containing advanced DMEM/F-12 (Thermo Fisher Scientific, cat. 12634028), 10 mM HEPES (Thermo Fisher Scientific, cat. 15630080), 1X GlutaMAX supplement (Thermo Fisher Scientific, cat. 35050061), 0.1 mg/mL primocin (InvivoGen, San Diego, CA, cat. ant-pm-2), 10% defined fetal bovine serum, heat inactivated (HyClone Laboratories Inc., Logan, UT, cat. SH30070.03HI), 50% L-WRN conditioned media (ATCC, cat. CRL-3276), 1.25 mM N-Acetyl-L-cysteine (Sigma-Aldrich, cat. A9165), 10 mM nicotinamide (Sigma-Aldrich, cat. N0636), 1X B-27 supplement (Thermo Fisher Scientific, cat. 17504044), 1X N-2 supplement (Thermo Fisher Scientific, cat. […]

[1] = curve of first compound, second compound 0.0316 µM
[2] = curve of first compound, second compound 0.1 µM
[3] = curve of first compound, second compound 0.316 µM
[4] = curve of first compound, second compound 1 µM
[5] = curve of first compound, second compound 3.16 µM
[6] = curve of first compound, second compound 10 µM
[7] = second compound 0.0316 µM, first compound 0.0316 µM
[8] = second compound 0.0316 µM, first compound 0.1 µM
[9] = second compound 0.0316 µM, first compound 0.316 µM
[10] = second compound 0.0316 µM, first compound 1 µM
[11] = second compound 0.1 µM, first compound 0.0316 µM
[12] = second compound 0.1 µM, first compound 0.1 µM
[13] = second compound 0.1 µM, first compound 0.316 µM
[14] = second compound 0.1 µM, first compound 1 µM
[15] = second compound 0.316 µM, first compound 0.0316 µM
[16] = second compound 0.316 µM, first compound 0.1 µM
[17] = second compound 0.316 µM, first compound 0.316 µM
[18] = second compound 0.316 µM, first compound 1 µM
[19] = second compound 1 µM, first compound 0.0316 µM
[20] = second compound 1 µM, first compound 0.1 µM
[21] = second compound 1 µM, first compound 0.316 µM
[22] = second compound 1 µM, first compound 1 µM
[23] = second compound 3.16 µM, first compound 0.0316 µM
[24] = second compound 3.16 µM, first compound 0.1 µM
[25] = second compound 3.16 µM, first compound 0.316 µM
[26] = second compound 3.16 µM, first compound 1 µM
[27] = second compound 10 µM, first compound 0.0316 µM
[28] = second compound 10 µM, first compound 0.1 µM
[29] = second compound 10 µM, first compound 0.316 µM
[30] = second compound 10 µM, first compound 1 µM
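Note: spheroids exposed to compounds for seven days before readout.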
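Throughout, for viability, T/C: 100% = DMSO vehicle control viability.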

O=c1[nH]cc(F)c(=O)[nH]1 + Nc1ccc(C#CCN(C(=O)Cc2ncc(C(F)(F)F)cc2C(F)(F)F)c2ccc(F)cc2)nn1
pIC50 [1]: < 5.00
pIC50 [2]: < 5.00
pIC50 [3]: < 5.00
pIC50 [4]: < 5.00
pIC50 [5]: < 5.00
pIC50 [6]: < 5.00
viability, T/C [7]: 112%
viability, T/C [8]: 105%
viability, T/C [9]: 93.2%
viability, T/C [10]: 87.1%
viability, T/C (second compound 0.0316 µM, first compound 3.16 µM): 94.2%
viability, T/C (second compound 0.0316 µM, first compound 10 µM): 70.3%
viability, T/C [11]: 102%
viability, T/C [12]: 108%
viability, T/C [13]: 101%
viability, T/C [14]: 105%
viability, T/C (second compound 0.1 µM, first compound 3.16 µM): 93.3%
viability, T/C (second compound 0.1 µM, first compound 10 µM): 81.2%
viability, T/C [15]: 103%
viability, T/C [16]: 106%
viability, T/C [17]: 107%
viability, T/C [18]: 92.7%
viability, T/C (second compound 0.316 µM, first compound 3.16 µM): 94.7%
viability, T/C (second compound 0.316 µM, first compound 10 µM): 82.4%
viability, T/C [19]: 93.5%
viability, T/C [20]: 115%
viability, T/C [21]: 99.2%
viability, T/C [22]: 110%
viability, T/C (second compound 1 µM, first compound 3.16 µM): 105%
viability, T/C (second compound 1 µM, first compound 10 µM): 80.6%
viability, T/C [23]: 100%
viability, T/C [24]: 107%
viability, T/C [25]: 101%
viability, T/C [26]: 110%
viability, T/C (second compound 3.16 µM, first compound 3.16 µM): 103%
viability, T/C (second compound 3.16 µM, first compound 10 µM): 82.2%
viability, T/C [27]: 128%
viability, T/C [28]: 112%
viability, T/C [29]: 120%
viability, T/C [30]: 108%
viability, T/C (second compound 10 µM, first compound 3.16 µM): 104%
viability, T/C (second compound 10 µM, first compound 10 µM): 94.1%

C=CCn1c(=O)c2cnc(Nc3ccc(N4CCN(C)CC4)cc3)nc2n1-c1cccc(C(C)(C)O)n1
viability, T/C (compound 0.00316 µM): 97.5% and 107% and 98.8%
viability, T/C (compound 0.01 µM): 100% and 96.8% and 90.3%
viability, T/C (compound 0.0316 µM): 100% and 108% and 112%
viability, T/C (compound 0.1 µM): 107% and 87.8% and 93.7%
viability, T/C (compound 0.316 µM): 85.4% and 72.3% and 92.5%
viability, T/C (compound 1 µM): 48.6% and 50.2% and 50.6%
pIC50 (curve of compound): 6.02 and < 6.00

C=CCn1c(=O)c2cnc(Nc3ccc(N4CCN(C)CC4)cc3)nc2n1-c1cccc(C(C)(C)O)n1 + Nc1ccc(C#CCN(C(=O)Cc2ncc(C(F)(F)F)cc2C(F)(F)F)c2ccc(F)cc2)nn1
pIC50 [1]: < 6.00
pIC50 [2]: < 6.00
pIC50 [3]: < 6.00
pIC50 [4]: 6.01
pIC50 [5]: < 6.00
pIC50 [6]: 6.03
viability, T/C (second compound 0.0316 µM, first compound 0.00316 µM): 102%
viability, T/C (second compound 0.0316 µM, first compound 0.01 µM): 98.9%
viability, T/C [7]: 84.3%
viability, T/C [8]: 113%
viability, T/C [9]: 96.4%
viability, T/C [10]: 59.8%
viability, T/C (second compound 0.1 µM, first compound 0.00316 µM): 100%
viability, T/C (second compound 0.1 µM, first compound 0.01 µM): 95.6%
viability, T/C [11]: 95.8%
viability, T/C [12]: 94.1%
viability, T/C [13]: 88.3%
viability, T/C [14]: 86.8%
viability, T/C (second compound 0.316 µM, first compound 0.00316 µM): 102%
viability, T/C (second compound 0.316 µM, first compound 0.01 µM): 115%
viability, T/C [15]: 106%
viability, T/C [16]: 108%
viability, T/C [17]: 92.4%
viability, T/C [18]: 63.6%
viability, T/C (second compound 1 µM, first compound 0.00316 µM): 101%
viability, T/C (second compound 1 µM, first compound 0.01 µM): 96.5%
viability, T/C [19]: 81.1%
viability, T/C [20]: 101%
viability, T/C [21]: 103%
viability, T/C [22]: 49%
viability, T/C (second compound 3.16 µM, first compound 0.00316 µM): 115%
viability, T/C (second compound 3.16 µM, first compound 0.01 µM): 109%
viability, T/C [23]: 85.7%
viability, T/C [24]: 99.3%
viability, T/C [25]: 115%
viability, T/C [26]: 58.4%
viability, T/C (second compound 10 µM, first compound 0.00316 µM): 126%
viability, T/C (second compound 10 µM, first compound 0.01 µM): 101%
viability, T/C [27]: 108%
viability, T/C [28]: 116%
viability, T/C [29]: 128%
viability, T/C [30]: 45.1%

O=C(c1cc(Cc2n[nH]c(=O)c3ccccc23)ccc1F)N1CCN(C(=O)C2CC2)CC1
viability, T/C (compound 0.0316 µM): 88.1% and 93% and 83.1%
viability, T/C (compound 0.1 µM): 82.1% and 100% and 97.3%
viability, T/C (compound 0.316 µM): 92.3% and 104% and 81.8%
viability, T/C (compound 1 µM): 87.4% and 87.5% and 87.9%
viability, T/C (compound 3.16 µM): 91% and 82.4% and 88.4%
viability, T/C (compound 10 µM): 58.5% and 61.9% and 69.8%
pIC50 (curve of compound): < 5.00
